According to patent US12018021B2 (UCB Biopharma SRL, priority 2018, dated 2024):

Target: IgE-Tb / FcεRIα-Y131A-AF488 (Homo sapiens, UniProt P01854)
Test: IgE-Tb / FcεRIα-Y131A-AF488 FRET assay (protocol for examples 1 to 233)
Format: binding
Settings: examples 1 to 233: 5 nM IgE-Tb, 25 nM FcεRIα-Y131A-AF488, incubated 2 hours at room temperature; read-out: Y131A FRET IC50 range
Procedure: For examples 1 to 233, the assay was conducted according to the following: Each assay reaction was conducted in a volume of 25 μl in a 384-well half-volume plate. 10 point compound serial dilutions (3-fold) were generated in DMSO at a concentration of ×50 that of the final assay concentration (FAC). Compound solutions were then prepared by IgE-Tb diluting 10-fold in assay buffer. For the assay, 5 μl of diluted compound was added to 10 μl of, followed by addition of 10 μl FcεRIα-Y131A-AF488. FRET reagents FACs were 5 nM IgE-Tb, 25 nM FcεRIα-Y131A-AF488. Usually the top FAC of compound in the assay was 10 μM. The final DMSO concentration was 2%. The minimum signal (MIN) was measured by adding 5l unlabelled FcεRIα at 1 μM (FAC=200 nM) to the FRET reagents. The maximum FRET signal (MAX) was measured in wells containing FRET reagents but no compound. The assay was incubated for 2 hours at room temperature, protected from light and evaporation, and with gentle agitation.
Measurement of FRET for each well was carried out by exciting at 330 nm and measuring emission at 495/520 nm using an Envision plate reader (Perkin Elmer). FRET ratio was calculated as follows: Emission at 520/Emission at 495×1000.
The FRET ratio was used for the data analysis.
Z′ was calculated as follows (σ=standard deviation and μ=mean): 1−((3×σMAX)+(3×σMIN))/(μMAX−μMIN)
Z′ above 0.5 was considered a good assay.
Background signal (MIN) was subtracted from all wells. Using the background subtracted values, the percent inhibition by compound in each test-well was calculated as follows: 100−Test-well FRET ratio/MAX FRET ratio×100.
Percent inhibition was plotted against compound concentration. IC50 values for each compound were determined using four parameter logistic fit model using the XLFIT5 software package.

IgE-Tb / FcεRIα-Y131A-AF488, sequence (P01854 1-427 limits assumed, stated change not applied): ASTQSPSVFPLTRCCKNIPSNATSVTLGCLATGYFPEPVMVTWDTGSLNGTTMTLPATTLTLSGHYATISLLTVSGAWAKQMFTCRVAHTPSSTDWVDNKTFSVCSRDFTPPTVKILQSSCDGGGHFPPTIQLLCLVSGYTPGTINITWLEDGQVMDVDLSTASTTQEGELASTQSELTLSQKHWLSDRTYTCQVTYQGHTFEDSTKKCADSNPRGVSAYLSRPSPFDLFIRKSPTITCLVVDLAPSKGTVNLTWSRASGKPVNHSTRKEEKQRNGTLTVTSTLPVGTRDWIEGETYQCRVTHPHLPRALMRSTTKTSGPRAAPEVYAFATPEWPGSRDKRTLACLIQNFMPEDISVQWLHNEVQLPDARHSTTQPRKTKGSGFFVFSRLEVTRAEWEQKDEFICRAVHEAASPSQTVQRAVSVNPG

| SMILES | IC50 [nM] |
| --- | --- |
| CC1=NN(c2cccc(NC(=O)C3CCc4sc(NC(=O)C5CC5)c(C(=O)NCC5CC5)c4C3)c2)C(=O)C1 (stereo not shown) [Example 43, 2-(Cyclopropanecarbonylamino)-N3-(cyclopropylmethyl)-N5-[3-(3-methyl-5-oxo-4H-pyrazol-1-yl)phenyl]-4,5,6,7-tetrahydrobenzothiophene-3,5-dicarboxamide] | < 1000 |
| O=C(NCC1CC1)c1c(NC(=O)C2CC2)sc2c1CC(C(=O)Nc1cccc3[nH]ncc13)CC2 (stereo not shown) [Example 44, 2-(Cyclopropanecarbonylamino)-N3-(cyclopropylmethyl)-N5-(1H-indazol-4-yl)-4,5,6,7-tetrahydrobenzothiophene-3,5-dicarboxamide; 2,2,2-trifluoroacetic acid] | < 1000 |
| O=C(NCC1CC1)c1c(NC(=O)C2CC2)sc2c1CC(C(=O)Nc1ccc3[nH]ncc3c1)CC2 (stereo not shown) [Example 45, 2-(Cyclopropanecarbonylamino)-N3-(cyclopropylmethyl)-N5-(1H-indazol-5-yl)-4,5,6,7-tetrahydrobenzothiophene-3,5-dicarboxamide; 2,2,2-trifluoroacetic acid] | < 1000 |
| O=C(NCC1CC1)c1c(NC(=O)C2CC2)sc2c1CC(c1nc3nccnc3[nH]1)CC2 (stereo not shown) [Example 46, 2-(Cyclopropanecarbonylamino)-N-(cyclopropylmethyl)-5-(1H-imidazo[4,5-b]pyrazin-2-yl)-4,5,6,7-tetrahydrobenzothiophene-3-carboxamide] | < 1000 |
| O=C(NCC1CC1)c1c(NC(=O)C2CC2)sc2c1CC(C(=O)NC1Cc3ccccc3C1)CC2 (stereo not shown) [Example 47, 2-(Cyclopropanecarbonylamino)-N3-(cyclopropylmethyl)-N5-indan-2-yl-4,5,6,7-tetrahydrobenzothiophene-3,5-dicarboxamide] | < 1000 |
| COc1ccc(CCNC(=O)C2CCc3sc(NC(=O)C4CC4)c(C(=O)NCC4CC4)c3C2)cc1 (stereo not shown) [Example 48, 2-(Cyclopropanecarbonylamino)-N3-(cyclopropylmethyl)-N5-[2-(4-methoxyphenyl)ethyl]-4,5,6,7-tetrahydrobenzothiophene-3,5-dicarboxamide] | < 1000 |
| O=C(NCC1CC1)c1c(NC(=O)C2CC2)sc2c1CC(C(=O)Nc1ccc3nccnc3c1)CC2 (stereo not shown) [Example 49, 2-(Cyclopropanecarbonylamino)-N3-(cyclopropylmethyl)-N5-quinoxalin-6-yl-4,5,6,7-tetrahydrobenzothiophene-3,5-dicarboxamide] | < 1000 |
| O=C(NCC1CC1)c1c(NC(=O)C2CC2)sc2c1CC(C(=O)Nc1nccs1)CC2 (stereo not shown) [Example 50, 2-(Cyclopropanecarbonylamino)-N3-(cyclopropylmethyl)-N5-thiazol-2-yl-4,5,6,7-tetrahydrobenzothiophene-3,5-dicarboxamide] | < 1000 |
| O=C(NCC1CC1)c1c(NC(=O)C2CC2)sc2c1CC(C(=O)Nc1nnn[nH]1)CC2 (stereo not shown) [Example 51, 2-(Cyclopropanecarbonylamino)-N3-(cyclopropylmethyl)-N5-(1H-tetrazol-5-yl)-4,5,6,7-tetrahydrobenzothiophene-3,5-dicarboxamide] | < 1000 |
| O=C(NCC1CC1)c1c(NC(=O)C2CC2)sc2c1CC(C(=O)Nc1ccncc1)CC2 (stereo not shown) [Example 52, 2-(Cyclopropanecarbonylamino)-N3-(cyclopropylmethyl)-N5-(4-pyridyl)-4,5,6,7-tetrahydrobenzothiophene-3,5-dicarboxamide] | < 1000 |
| O=C(NCC1CC1)c1c(NC(=O)C2CC2)sc2c1CC(C(=O)Nc1cnccn1)CC2 (stereo not shown) [Example 53, 2-(Cyclopropanecarbonylamino)-N3-(cyclopropylmethyl)-N5-pyrazin-2-yl-4,5,6,7-tetrahydrobenzothiophene-3,5-dicarboxamide] | < 1000 |
| O=C(NCC1CC1)c1c(NC(=O)C2CC2)sc2c1CC(C(=O)Nc1cccnc1)CC2 (stereo not shown) [Example 54, 2-(Cyclopropanecarbonylamino)-N3-(cyclopropylmethyl)-N5-(3-pyridyl)-4,5,6,7-tetrahydrobenzothiophene-3,5-dicarboxamide] | < 1000 |
| O=C(NCC1CC1)c1c(NC(=O)C2CC2)sc2c1CC(C(=O)N1CC(O)C1)CC2 (stereo not shown) [Example 55, 2-(Cyclopropanecarbonylamino)-N-(cyclopropylmethyl)-5-(3-hydroxyazetidine-1-carbonyl)-4,5,6,7-tetrahydrobenzothiophene-3-carboxamide] | 10000 to 50000 |
| O=C(NCC1CC1)c1c(NC(=O)C2CC2)sc2c1CC(C(=O)N1CCS(=O)(=O)CC1)CC2 (stereo not shown) [Example 56, 2-(Cyclopropanecarbonylamino)-N-(cyclopropylmethyl)-5-(1,1-dioxo-1,4-thiazinane-4-carbonyl)-4,5,6,7-tetrahydrobenzothiophene-3-carboxamide] | 10000 to 50000 |
| O=C(NCC1CC1)c1c(NC(=O)C2CC2)sc2c1CC(C(=O)NCCc1ccc(O)cc1)CC2 (stereo not shown) [Example 57, 2-(Cyclopropanecarbonylamino)-N3-(cyclopropylmethyl)-N5-[2-(4-hydroxyphenyl)ethyl]-4,5,6,7-tetrahydrobenzothiophene-3,5-dicarboxamide] | < 1000 |
| O=C(NCC1CC1)c1c(NC(=O)C2CC2)sc2c1CC(C=NO)CC2 (stereo not shown) [Example 58, 2-(cyclopropanecarbonylamino)-N-(cyclopropylmethyl)-5-(hydroxyiminomethyl)-4,5,6,7-tetrahydrobenzothiophene-3-carboxamide] | 1000 to 10000 |
| CCn1cnnc1NCC1CCc2sc(NC(=O)C3CC3)c(C(=O)NCC3CC3)c2C1 (stereo not shown) [Example 59, 2-(Cyclopropanecarbonylamino)-N-(cyclopropylmethyl)-5-[[(4-ethyl-1,2,4-triazol-3-yl)amino]methyl]-4,5,6,7-tetrahydrobenzothiophene-3-carboxamide] | < 1000 |
| Cc1ccc(NCC2(O)CCc3sc(NC(=O)C4CC4)c(C(=O)NCC4CC4)c3C2)cc1 (stereo not shown) [Example 60, 2-(Cyclopropanecarbonylamino)-N-(cyclopropylmethyl)-5-hydroxy-5-[(4-methylanilino)methyl]-6,7-dihydro-4H-benzothiophene-3-carboxamide] | 1000 to 10000 |
| Cc1ccc(N2CC3(CCc4sc(NC(=O)C5CC5)c(C(=O)NCC5CC5)c4C3)OC2=O)cc1 (stereo not shown) [Example 61, 2-(Cyclopropanecarbonylamino)-N-(cyclopropylmethyl)-2′-oxo-3′-(p-tolyl)spiro[6,7-dihydro-4H-benzothiophene-5,5′-oxazolidine]-3-carboxamide] | < 1000 |
| Nc1ncccc1C1CCc2sc(NC(=O)C3CC3)c(C(=O)NCC3CC3)c2C1 (stereo not shown) [Example 62, 5-(2-Amino-3-pyridyl)-2-(cyclopropanecarbonylamino)-N-(cyclopropylmethyl)-4,5,6,7-tetrahydrobenzothiophene-3-carboxamide] | < 1000 |
| Cc1ccc(-c2cnc(C3CCc4sc(NC(=O)C5CC5)c(C(=O)NCC5CC5)c4C3)[nH]2)cc1 (stereo not shown) [Example 63, 2-(Cyclopropanecarbonylamino)-N-(cyclopropylmethyl)-5-[5-(p-tolyl)-1H-imidazol-2-yl]-4,5,6,7-tetrahydrobenzothiophene-3-carboxamide] | < 1000 |
| N#CC1CCc2sc(NC(=O)C3CC3)c(C(=O)NCC3CC3)c2C1 (stereo not shown) [Example 64, 5-Cyano-2-(cyclopropanecarbonylamino)-N-(cyclopropylmethyl)-4,5,6,7-tetrahydrobenzothiophene-3-carboxamide] | 1000 to 10000 |
